Data from BindingDB's records for patent US20250313563 (The Broad Institute, 2025).
Values joined by “and” are separate entries in the source; they are usually repeats but may differ in a detail not shown here. Equal values may be shown once.

Columns and labels:
[1] = target: Glycogen synthase kinase-3 alpha (Homo sapiens, UniProt P49840); assay: TR-FRET Assay
Procedure, shortened: (§1)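 30 min preinc w/ cpd in assay buffer → kinase rxn → EDTA quench → add detection mix (40 nM SA-d2, 2 nM Tb-pSer641 Ab) → TR-FRET read.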

[2] = target: Glycogen synthase kinase-3 beta (Homo sapiens, UniProt P49841); assay: TR-FRET Assay
Chain of Glycogen synthase kinase-3 beta (P49841 whole entry): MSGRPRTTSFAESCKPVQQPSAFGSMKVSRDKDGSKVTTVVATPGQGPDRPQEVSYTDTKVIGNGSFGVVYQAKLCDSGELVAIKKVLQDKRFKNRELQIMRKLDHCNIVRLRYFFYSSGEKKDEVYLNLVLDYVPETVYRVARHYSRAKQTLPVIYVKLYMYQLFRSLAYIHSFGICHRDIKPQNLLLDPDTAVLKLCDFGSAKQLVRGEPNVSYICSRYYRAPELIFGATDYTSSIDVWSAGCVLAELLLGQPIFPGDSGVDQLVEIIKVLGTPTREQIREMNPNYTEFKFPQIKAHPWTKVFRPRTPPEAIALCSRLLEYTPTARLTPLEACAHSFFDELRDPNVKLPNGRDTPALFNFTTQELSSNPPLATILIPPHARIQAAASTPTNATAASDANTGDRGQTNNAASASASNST
Procedure, shortened: as §1

Chain of Glycogen synthase kinase-3 alpha (P49840 whole entry): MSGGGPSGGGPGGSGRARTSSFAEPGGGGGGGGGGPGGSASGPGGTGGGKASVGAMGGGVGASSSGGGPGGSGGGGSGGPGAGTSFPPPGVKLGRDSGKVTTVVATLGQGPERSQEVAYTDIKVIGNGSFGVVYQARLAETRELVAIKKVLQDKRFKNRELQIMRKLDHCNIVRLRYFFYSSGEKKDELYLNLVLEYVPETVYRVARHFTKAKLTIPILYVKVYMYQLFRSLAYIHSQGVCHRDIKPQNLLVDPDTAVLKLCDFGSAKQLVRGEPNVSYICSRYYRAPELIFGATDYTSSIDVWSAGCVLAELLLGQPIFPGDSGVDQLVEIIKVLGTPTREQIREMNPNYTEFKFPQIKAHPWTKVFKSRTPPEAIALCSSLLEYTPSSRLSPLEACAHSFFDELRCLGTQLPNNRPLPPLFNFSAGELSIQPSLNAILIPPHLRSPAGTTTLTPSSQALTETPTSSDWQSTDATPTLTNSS

| SMILES | IC50 [1] | IC50 [2] |
| --- | --- | --- |
| CC1(C)CC(=O)C2=C(C1)NC1=C(CN=N1)C21CCSC1 (centres undefined) [US20250313563, Compound 883973] | < 100 nM | 100 to 1000 nM |
| CC1(C)CC(=O)C2=C(C1)NC1=C(CN=N1)C21CCC2(CC1)COC2 [US20250313563, Compound 883977] | < 100 nM | 100 to 1000 nM |
| CC1(C)CC(=O)C2=C(C1)NC1=C(CN=N1)C21CCCCCC1 [US20250313563, Compound 883978] | 100 to 1000 nM | 100 to 1000 nM |
| CC[C@]1(c2cccc(C(F)(F)F)c2)C2=CN=NC2NC2=C1C(=O)N(C)C[C@@H]2C (some centres undefined) [US20250313563, Compound 883979] | < 100 nM | < 100 nM |
| CC[C@]1(c2cccc(C(F)(F)F)c2)C2=CN=NC2NC2=C1C(=O)N(C)C[C@H]2C (some centres undefined) [US20250313563, Compound 883980] | < 100 nM and 100 to 1000 nM | < 100 nM and 1000 to 5000 nM |
| CC[C@@]1(c2cccc(C(F)(F)F)c2)C2=CN=NC2NC2=C1C(=O)N(C)C[C@@H]2C (some centres undefined) [US20250313563, Compound 883981] | > 5000 nM | > 5000 nM |
| CC[C@@]1(c2cccc(C(F)(F)F)c2)C2=CN=NC2NC2=C1C(=O)N(C)C[C@H]2C (some centres undefined) [US20250313563, Compound 883982] | > 5000 nM | > 5000 nM |
| CCC1(c2cccc(-c3ccnc(OC)c3)c2)C2=C(CC(C)(C)CC2=O)NC2N=NC(C)=C21 (centres undefined) [US20250313563, Compound 883985] | < 100 nM | 100 to 1000 nM |
| CCC1(c2cccc(-c3ccncc3F)c2)C2=CN=NC2NC2=C1C(=O)CC(C)(C)C2 (centres undefined) [US20250313563, Compound 883986] | < 100 nM | < 100 nM |
| CCC1(c2cccc(-c3ccnc(C)c3)c2)C2=C(CC(C)(C)CC2=O)NC2N=NC(C)=C21 (centres undefined) [US20250313563, Compound 883987] | < 100 nM | 100 to 1000 nM |
| CCC1(c2cccc(-c3cc(C)ncc3C)c2)C2=C(CC(C)(C)CC2=O)NC2N=NC(C)=C21 (centres undefined) [US20250313563, Compound 883988] | < 100 nM | < 100 nM |
| CCC1(c2cccc(-c3ccnc(C(F)(F)F)c3)c2)C2=C(CC(C)(C)CC2=O)NC2N=NC(C)=C21 (centres undefined) [US20250313563, Compound 883989] | < 100 nM | 100 to 1000 nM |
| CCC1(c2cccc(-c3ccnc(N(C)C)c3)c2)C2=C(CC(C)(C)CC2=O)NC2N=NC(C)=C21 (centres undefined) [US20250313563, Compound 883990] | < 100 nM | 100 to 1000 nM |
| CCC1(c2cccc(-c3ccncc3C)c2)C2=C(CC(C)(C)CC2=O)NC2N=NC(C)=C21 (centres undefined) [US20250313563, Compound 883991] | < 100 nM | < 100 nM |
| CCC1(c2cccc(-c3ccnn3C)c2)C2=C(CC(C)(C)CC2=O)NC2N=NC(C)=C21 (centres undefined) [US20250313563, Compound 883992] | < 100 nM | < 100 nM |
| CCC1(c2cccc(-c3cnn(C)c3C)c2)C2=C(CC(C)(C)CC2=O)NC2N=NC(C)=C21 (centres undefined) [US20250313563, Compound 883993] | < 100 nM | < 100 nM |
| CCC1(c2cccc(C3=CN=NC3)c2)C2=C(CC(C)(C)CC2=O)NC2N=NC(C)=C21 (centres undefined) [US20250313563, Compound 883994] | < 100 nM | < 100 nM |
| CCC1(c2cccc(-c3c(C)nn(C)c3C)c2)C2=C(CC(C)(C)CC2=O)NC2N=NC(C)=C21 (centres undefined) [US20250313563, Compound 883995] | < 100 nM | < 100 nM |
| CCC1(c2cccc(-c3cnn(CCOC)c3)c2)C2=C(CC(C)(C)CC2=O)NC2N=NC(C)=C21 (centres undefined) [US20250313563, Compound 883996] | < 100 nM | 100 to 1000 nM |
| CCC1(c2cccc(-c3cnn(C4CC4)c3)c2)C2=C(CC(C)(C)CC2=O)NC2N=NC(C)=C21 (centres undefined) [US20250313563, Compound 883997] | < 100 nM | 100 to 1000 nM |
| CCC1(c2cccc(-c3cn(C)nc3C(C)C)c2)C2=C(CC(C)(C)CC2=O)NC2N=NC(C)=C21 (centres undefined) [US20250313563, Compound 883998] | < 100 nM | 100 to 1000 nM |
| CCC1(c2cccc(-c3ccn(C)n3)c2)C2=C(CC(C)(C)CC2=O)NC2N=NC(C)=C21 (centres undefined) [US20250313563, Compound 883999] | < 100 nM | < 100 nM |
| CCC1(c2cccc(-c3cnn(C)c3)c2)C2=C(CC(C)(C)CC2=O)NC2N=NC(C)=C21 (centres undefined) [US20250313563, Compound 884000] | < 100 nM | 100 to 1000 nM |
| CCC1(c2cccc(-c3cncn3C)c2)C2=C(CC(C)(C)CC2=O)NC2N=NC(C)=C21 (centres undefined) [US20250313563, Compound 884001] | < 100 nM | < 100 nM |
| CCC1(c2cccc(-c3cnn4c3CCCC4)c2)C2=C(CC(C)(C)CC2=O)NC2N=NC(C)=C21 (centres undefined) [US20250313563, Compound 884002] | < 100 nM | < 100 nM |
| CCC1(c2cccc(-c3cn(C)nc3C)c2)C2=C(CC(C)(C)CC2=O)NC2N=NC(C)=C21 (centres undefined) [US20250313563, Compound 884003] | < 100 nM | < 100 nM |
| CC1(C)CC(=O)C2=C(C1)NC1=C(CN=N1)[C@]21C[C@@H](n2cccn2)C1 [US20250313563, Compound 884004] | < 100 nM | < 100 nM |
